{"source": "paper PMC8222394", "about": "(Nature Communications, 2021)", "key": {"SARS-CoV-2 pseudovirus [1]": {"system": "SARS-CoV-2 pseudovirus", "assay": "microbe, parasite or virus in culture", "format": "cell-based", "conditions": "Severe acute respiratory syndrome-related coronavirus"}, "SARS-CoV-2 pseudovirus [2]": {"system": "SARS-CoV-2 pseudovirus", "format": "cell-based"}, "SARS-CoV-2 pseudovirus [3]": {"system": "SARS-CoV-2 pseudovirus", "format": "cell-based", "remark": "listed apart in the source"}, "[4]": {"system": "SARS-CoV-2 (wildtype-USA-WA1/2020)", "format": "cell-based"}, "TMPRSS2-V5": {"system": "TMPRSS2-V5", "format": "cell-based, human"}, "ST14": {"system": "ST14", "assay": "RT-qPCR of ST14 mRNA in Caco-2 cells", "format": "cell-based, human", "conditions": "Fig. S3B, Caco-2, 6 hr, relative to Veh"}, "DCAF1 [5]": {"system": "DCAF1", "assay": "qPCR of DCAF1 gene expression in Caco-2 cells", "format": "cell-based, human"}, "DCAF1 [6]": {"system": "DCAF1", "assay": "Cellular thermal shift assay, DCAF1", "format": "binding, human", "conditions": "Beas-2B, HFG 3 μM 1 h"}, "TMPRSS2 [7]": {"system": "TMPRSS2", "assay": "In vitro transcription and translation proline treatment assay", "format": "biochemical", "conditions": "with or without L-proline supplementation", "procedure": "TMPRSS2 constructs were synthesized in vitro using TnT Coupled Reticulocyte Lysate System (Promega) following manufacturer’s protocol. HFG plus proline assays were conducted using in vitro transcription and translation kit with free amino acids diluted 5-fold and proline supplemented at indicated concentrations. Following synthesis, products were analyzed via immunoblotting."}, "SARS-CoV-2 pseudovirus [8]": {"system": "SARS-CoV-2 pseudovirus", "assay": "Cell-based proline treatment, pseudoviral entry", "conditions": "for pseudoviral entry relative to Veh: replicates, listed as HFG"}, "E-cadherin": {"system": "E-cadherin", "assay": "Immunoblot of E-cadherin in Caco-2 cells", "format": "cell-based, human"}, "Ace2-GFP": {"system": "Ace2-GFP", "assay": "Immunoblot of Ace2-GFP in Beas-2B cells", "format": "cell-based"}, "TMPRSS2 [9]": {"system": "TMPRSS2", "conditions": "for TMPRSS2 densitometry (relative to 0): Fig. 4C, Caco-2, 18 h; for TMPRSS2 densitometry (relative to 0) / TMPRSS2 densitometry, time course: listed as HFG; for TMPRSS2 densitometry, time course: Fig. 4D, Caco-2, 3 µM"}, "TMPRSS2 [10]": {"system": "TMPRSS2", "conditions": "Calu-3 cells"}, "TMPRSS2 [11]": {"system": "TMPRSS2"}, "TMPRSS2 [12]": {"target": "T1, TMPRSS2 (Homo sapiens, UniProt O15393)", "conditions": "Beas-2B, HFG 3 μM 1 h"}, "TMPRSS2 [13]": {"system": "TMPRSS2", "conditions": "Caco-2 cells, 18 h treatment then washout"}, "TMPRSS2 [14]": {"system": "TMPRSS2", "conditions": "Beas-2B; for TMPRSS2 densitometry: Fig. 6A, 6 h, listed as HFG"}, "[15]": {"conditions": "human, 3.5 mg/day Oral; cited from earlier work"}, "[16]": {"conditions": "cited from earlier work"}, "in vitro": {"assay": "in vitro", "conditions": "human"}, "TMPRSS2 [17]": {"target": "T1, TMPRSS2", "assay": "TMPRSS2 activity assay (Boc-Gln-Ala-Arg-MCA fluorescence)", "format": "biochemical", "design": "purchased LSBio", "conditions": "for TMPRSS2 activity (FigS9 source data): replicates", "procedure": "Fluorescence (380-15 nm excitation/470-20 nm emission) of the samples was monitored over 4:45 h and the slope of the curves was calculated by linear regression analysis and used as output for TMPRSS2 activity."}}, "note": "“And” between values parts separate entries of the source, which are not always exact repeats. Equal entries are not always repeated. Where two headings read alike, the source gives them in different places.", "data": [{"smiles": "O=C(CC1NCCCC1O)Cn1cnc2cc(Br)c(Cl)cc2c1=O", "note": "(stereo not drawn) [Halofuginone]", "values": [{"measurement": "IC50", "setting": "SARS-CoV-2 pseudovirus [1]; Caco-2, read-out: In vitro IC50 (viral entry)", "value": "~30", "unit": "nM"}, {"measurement": "IC50", "setting": "SARS-CoV-2 pseudovirus [1]; Caco-2, read-out: concentration for 50% reduction in the level of pseudoviral entry", "value": "~300", "unit": "nM"}, {"measurement": "pseudoviral GFP expression", "setting": "SARS-CoV-2 pseudovirus [2]", "value": "markedly reduced levels of GFP expression"}, {"measurement": "pseudoviral luciferase reporter signal", "setting": "SARS-CoV-2 pseudovirus [3]", "value": "dose-dependent reduction of the luciferase signal"}, {"measurement": "signal relative to Control (FigS7 source data)", "setting": "SARS-CoV-2 pseudovirus [3]", "value": "0.6435 and 0.5799 and 0.5278"}, {"measurement": "reduction of SARS-CoV-2 viral infection", "setting": "[4]", "value": "highly effective in reducing SARS-CoV-2 viral infection"}, {"measurement": "TMPRSS2-V5 versus LacZ-V5 expression", "setting": "TMPRSS2-V5", "value": "selectively reduced TMPRSS2 expression"}, {"measurement": "ST14 mRNA expression", "setting": "ST14", "value": "0.847 and 0.804 and 0.672 and 1.192"}, {"measurement": "DCAF1 gene expression", "setting": "DCAF1 [5]; Caco-2, 3µM", "value": "do not affect DCAF1 gene expression"}, {"measurement": "relative DCAF1 gene expression", "setting": "DCAF1 [5]; block Vehicle/HFG/HHT, replicates, listed as HFG", "value": "1.066 and 1.83 and 0.845 and 0.576"}, {"measurement": "binding to DCAF1", "setting": "DCAF1 [6]", "value": "does not bind"}, {"measurement": "synthesis of TMPRSS2", "setting": "TMPRSS2 [7]", "value": "can inhibit the in vitro and in vivo synthesis of TMPRSS2 in a proline-dependent fashion"}, {"measurement": "pseudoviral entry relative to Veh", "setting": "SARS-CoV-2 pseudovirus [8]; concentration 0.0137 (unit not given), 0mM Proline", "value": "152.697 and 134.687 and 120.427 and 97.7116 and 89.0983 and 90.8546 and 80.2015 and 88.7016"}, {"measurement": "pseudoviral entry relative to Veh", "setting": "SARS-CoV-2 pseudovirus [8]; concentration 0.0137 (unit not given), 1mM Proline", "value": "78.8997 and 119.296 and 92.4783 and 61.8538 and 121.318 and 103.717 and 95.0292 and 87.0468"}, {"measurement": "pseudoviral entry relative to Veh", "setting": "SARS-CoV-2 pseudovirus [8]; concentration 0.0137 (unit not given), 5mM Proline", "value": "83.8659 and 82.9011 and 90.5346 and 126.552 and 83.6269 and 86.2224 and 92.3835 and 76.5378"}, {"measurement": "pseudoviral entry relative to Veh", "setting": "SARS-CoV-2 pseudovirus [8]; concentration 0.0412 (unit not given), 0mM Proline", "value": "135.074 and 83.8509 and 103.144 and 111.461 and 116.846 and 105.51 and 105.878 and 113.705"}, {"measurement": "pseudoviral entry relative to Veh", "setting": "SARS-CoV-2 pseudovirus [8]; concentration 0.0412 (unit not given), 1mM Proline", "value": "110.112 and 97.4283 and 87.7103 and 127.69 and 97.5882 and 67.824 and 78.2944 and 117.716"}, {"measurement": "pseudoviral entry relative to Veh", "setting": "SARS-CoV-2 pseudovirus [8]; concentration 0.0412 (unit not given), 5mM Proline", "value": "82.5299 and 121.265 and 73.6811 and 85.0503 and 103.755 and 88.171 and 83.5837 and 102.919"}, {"measurement": "pseudoviral entry relative to Veh", "setting": "SARS-CoV-2 pseudovirus [8]; concentration 0.123 (unit not given), 0mM Proline", "value": "99.7343 and 63.0974 and 80.3685 and 70.3519 and 79.4198 and 74.6305 and 82.2505 and 58.3341"}, {"measurement": "pseudoviral entry relative to Veh", "setting": "SARS-CoV-2 pseudovirus [8]; concentration 0.123 (unit not given), 1mM Proline", "value": "81.4705 and 100.257 and 127.468 and 88.584 and 113.575 and 85.4328 and 91.2395 and 78.3868"}, {"measurement": "pseudoviral entry relative to Veh", "setting": "SARS-CoV-2 pseudovirus [8]; concentration 0.123 (unit not given), 5mM Proline", "value": "62.4818 and 82.8199 and 109.855 and 101.172 and 80.2202 and 78.6211 and 92.2054 and 82.6012"}, {"measurement": "pseudoviral entry relative to Veh", "setting": "SARS-CoV-2 pseudovirus [8]; concentration 0.37 (unit not given), 0mM Proline", "value": "52.2274 and 41.9717 and 59.924 and 47.6381 and 40.7991 and 39.6967 and 44.7511 and 47.5163"}, {"measurement": "pseudoviral entry relative to Veh", "setting": "SARS-CoV-2 pseudovirus [8]; concentration 0.37 (unit not given), 1mM Proline", "value": "63.0963 and 89.0802 and 95.5491 and 76.9085 and 75.5967 and 54.6206 and 124.078 and 94.9093"}, {"measurement": "pseudoviral entry relative to Veh", "setting": "SARS-CoV-2 pseudovirus [8]; concentration 0.37 (unit not given), 5mM Proline", "value": "84.0152 and 111.59 and 116.82 and 90.6831 and 82.0915 and 111.563 and 85.8373 and 95.0829"}, {"measurement": "protection against pseudoviral entry with proline augmentation", "setting": "SARS-CoV-2 pseudovirus [8]; proline added to cell culture media", "value": "ablated"}, {"measurement": "E-cadherin protein", "setting": "E-cadherin", "value": "unaffected"}, {"measurement": "Ace2 protein", "setting": "Ace2-GFP", "value": "unaffected"}, {"measurement": "time to substantial reduction in TMPRSS2 expression", "setting": "TMPRSS2 [9]; Caco-2 cells, 3 µM", "value": "within three hours"}, {"measurement": "endogenous TMPRSS2 protein expression", "setting": "TMPRSS2 [9]; Caco-2 cells, 18 h", "value": "marked reduction"}, {"measurement": "TMPRSS2 densitometry (relative to 0)", "setting": "TMPRSS2 [9]; head 1 (unit not given)", "value": "0.1807 and 0.1069"}, {"measurement": "TMPRSS2 densitometry (relative to 0)", "setting": "TMPRSS2 [9]; head 3", "value": "0.1607 and 0.08785"}, {"measurement": "TMPRSS2 densitometry, time course", "setting": "TMPRSS2 [9]; time head 3", "value": "0.6876 and 0.6922 and 0.7386"}, {"measurement": "TMPRSS2 densitometry, time course", "setting": "TMPRSS2 [9]; time head 6", "value": "0.2973 and 0.5193 and 0.5743"}, {"measurement": "TMPRSS2 densitometry, time course", "setting": "TMPRSS2 [9]; time head 24", "value": "0.2861 and 0.2479 and 0.396"}, {"measurement": "TMPRSS2 protein levels", "setting": "TMPRSS2 [10]", "value": "qualitatively similar decreases"}, {"measurement": "TMPRSS2 transcription", "setting": "TMPRSS2 [11]; Caco-2 cells", "value": "modestly increased"}, {"measurement": "TMPRSS2 mRNA expression, Set1", "setting": "TMPRSS2 [11]; Fig. S3B, Caco-2, 6 hr, relative to Veh", "value": "1.663 and 2.342 and 1.988 and 2.135"}, {"measurement": "binding to TMPRSS2", "setting": "TMPRSS2 [12]", "value": "does not bind"}, {"measurement": "recovery of TMPRSS2 levels after drug removal", "setting": "TMPRSS2 [13]", "value": "returned close to baseline roughly six hours after drug removal"}, {"measurement": "effect on TMPRSS2 protein levels in DCAF1-knockdown cells", "setting": "TMPRSS2 [14]; DCAF1 siRNA", "value": "abrogated"}, {"measurement": "TMPRSS2 expression in control knockdown cells", "setting": "TMPRSS2 [14]; control siRNA", "value": "reduced TMPRSS2 expression"}, {"measurement": "TMPRSS2 densitometry", "setting": "TMPRSS2 [14]; Ctrl siRNA, HFG 100 nM", "value": "0.643 and 0.6245 and 0.6321"}, {"measurement": "TMPRSS2 densitometry", "setting": "TMPRSS2 [14]; Ctrl siRNA, HFG 300 nM", "value": "0.4952 and 0.3574 and 0.5989"}, {"measurement": "TMPRSS2 densitometry", "setting": "TMPRSS2 [14]; DCAF1 KD 1, HFG 100 nM", "value": "1.233 and 1.219 and 1.274"}, {"measurement": "TMPRSS2 densitometry", "setting": "TMPRSS2 [14]; DCAF1 KD 1, HFG 300 nM", "value": "1.254 and 1.215 and 1.261"}, {"measurement": "TMPRSS2 densitometry", "setting": "TMPRSS2 [14]; DCAF1 KD 2, HFG 100 nM", "value": "1.233 and 1.237 and 1.31"}, {"measurement": "TMPRSS2 densitometry", "setting": "TMPRSS2 [14]; DCAF1 KD 2, HFG 300 nM", "value": "1.246 and 1.239 and 1.116"}, {"measurement": "Cmax", "setting": "[15]", "value": 7, "unit": "nM"}, {"measurement": "toxicity profile", "setting": "[16]", "value": "very mild toxicity profile and is generally well tolerated"}, {"measurement": "CC50", "setting": "in vitro", "value": "~5540", "unit": "nM"}, {"measurement": "TMPRSS2 activity (FigS9 source data)", "setting": "TMPRSS2 [17]; 0.08 µM", "value": "0.4091 and 0.4156 and 0.3953 and 0.4416"}, {"measurement": "TMPRSS2 activity (FigS9 source data)", "setting": "TMPRSS2 [17]; 0.4 µM", "value": "0.4106 and 0.359 and 0.3929 and 0.3576"}, {"measurement": "TMPRSS2 activity (FigS9 source data)", "setting": "TMPRSS2 [17]; 2 µM", "value": "0.4305 and 0.3555 and 0.3601 and 0.3121"}, {"measurement": "TMPRSS2 catalytic activity", "setting": "TMPRSS2 [17]; recombinant TMPRSS2, preliminary", "value": "does not inhibit TMPRSS2 catalytic activity"}]}]}
